Assay results from patent publication US10993940B2, “Methods of enhancing immune response” (NOVARTIS AG, priority 2016, dated 2021).
Entries after “also recorded” stand apart in the source; their conditions may differ.

Key:
[1] = human, in vivo, 10 mg
[2] = tested on: respiratory tract infections; test: Respiratory tract infections during the 6 weeks of study drug treatment; type: in vivo, human; conditions: BEZ235 10 mg daily
Procedure: (Top) The percentage of subjects in each cohort who reported having one or more respiratory tract infections during the 6 weeks they were treated with study drug is shown. (Bottom) The percentage of subjects who experienced respiratory tract infections of moderate severity during the 6 weeks they were treated with study drug is shown. No subjects in the study experienced respiratory tract infections that were assessed as severe. The numbers on top of each bar indicate the percent change relative to placebo.
The rate of infections during the 6 weeks subjects were treated with study drug was also examined. The main infections that occurred during the 6 weeks of study drug treatment were respiratory tract infections.

[3] = human, in vivo
Procedure: In some embodiments, dosing regimens contemplated herein comprise administering daily an amount of RAD001 ranging from about 0.015 mg to about 0.1 mg.

[4] = tested on: immune system and interferon-induced gene expression in whole blood; test: RNAseq gene expression profiling and pathway enrichment analysis in whole blood, baseline vs after 6 weeks of treatment; type: in vivo, Homo sapiens; conditions: for Up-regulated genes: Tukey outlier of log 2(FC post- vs pre-treatment); for Mean FC Genes In Pathway: whole blood, post- vs pre-treatment (6 weeks)
Procedure: Peripheral venous blood samples were collected into PAXgene Blood RNA tubes. Total RNA was purified from PAXgene collected blood and the quality and yield of the isolated RNA assessed using an Agilent 2100 Bioanalyzer (Agilent Technologies, Santa Clara, Calif., USA). RNA-Seq libraries were prepared from the RNA using the Illumina TruSeq Stranded Total RNA with the Ribo-Zero Globin Kit. This kit performed the removal of ribosomal RNA and globin mRNA in a single step. The obtained libraries were sequenced using the Illumina HiSeq2500 platform in paired-end mode to a read length of 2×76 base-pairs (bp). Images from the instrument were processed using the manufacturer's software to generate FASTQ sequence files. Read quality was assessed by running FastQC (version 0.10) on the FASTQ files. […] An average of 100 million 76 bp paired-end reads per sample were mapped to the Homo sapiens genome (version GRCh38) and RefSeq UCSC was used for human gene and transcript annotation. An in-house gene quantification pipeline was used to determine the number of counts mapping to each gene (Schuierer, S. & Roma, G. The exon quantification pipeline (EQP): a comprehensive approach to the quantification of gene, exon and junction expression from RNA-seq data. Nucleic acids research (2016)). On average, 88% of the total reads were mapped to the genome or the transcripts, and 30% of the aligned reads mapped to expressed sequences. […] Any gene with an average expression of less than one count per million in any treatment/time condition was considered undetectable and removed from further analysis. Count data for remaining genes was then normalized in R Statistical Computing Software (v3.1.3) using the voom normalization procedure located in the limma package (Law, C W, Chen, Y, Shi, W, and Smyth, G K (2014). Voom: precision weights unlock linear model analysis tools for RNA-seq read counts. Genome Biology 15, […]). […] Thus, we included the value of this principle component as an adjustment for technical variation in subsequent analysis. For each gene, the following linear mixed model was fit to the voom-normalized expression data, adjusting for relevant covariates (age, gender, and BMI) as well as PC1 using SAS v9.3 software. • proc mixed […]; • class SubjID Day Trt Gender; • model log 2[…] Age Gender Bmi/solution DDFM=KenwardRoger; • repeated Day/type=un subject=SubjID; • by gene; where log 2exprs refers to the voom-normalized expression measurement; Day refers to the timepoint the sample was taken (pre- or post-dose); Trt refers to the treatment group of the subject; PC1 refers to the value of PC1 for that sample; Age refers to the age of the subject; Gender refers to the sex of the subject; Bmi refers to the body mass index of the subject; and SubjID refers to the ID of the subject. Differential expression fold changes and p-values were obtained using the SAS estimate statement. […] These gene expression signatures consisted of the post-vs pre-treatment fold change and p-values for each treatment. […] Canonical pathways (c2.cp.v5.0.entrez.gmt) were downloaded from the canonical signatures database (http://software.broadinstitute.org/gsea/msigdb/). Signatures were defined as described in the “RNASeq Differential Expression Analysis” section. For each pathway and treatment response signature, a weighted KS test was performed as previously described (Subramanian et al. Gene set enrichment analysis: A knowledge-based approach for interpreting genome-wide expression profiles. Proc. Nat. Acad.

[5] = oncology indications; cited from earlier work
mTORC1 and mTORC2 = mTORC1 and mTORC2 (Homo sapiens, UniProt P42345); conditions: low concentration; cited from earlier work
[6] = pH 3
mTORC1 = mTORC1 (Homo sapiens, UniProt P42345); conditions: very low concentration; cited from earlier work
PI3K/mTOR = conditions: relatively higher concentrations; cited from earlier work
urinary tract infections = test: Urinary tract infections during one year after study drug administration; type: in vivo, human
infections = test: Overall infection rate recorded by diary during the year following initiation of study drug; type: in vivo, human; conditions: elderly >=65 years
tooth or gum infections = test: Tooth or gum infections during one year after study drug administration
Procedure: A total of 264 elderly volunteers ≥65 years of age, without unstable medical conditions, were enrolled in a randomized double blind placebo-controlled trial. […] Subjects were treated for 6 weeks with study drug and, after a 2 week drug-free interval, were given a 2014 seasonal influenza vaccine (Fluvax®, CSL Biotherapies). […] The subjects were then followed for another 9 months off study drug.
As an additional assessment of immune function, the overall infection rate in each treatment group was assessed by having subjects record any infections they experienced during the year following the initiation of study drug treatment in a diary that was reviewed by study investigators at each study visit.

[7] = REACTOME_INTERFERON_ALPHA_BETA_SIGNALING
[8] = REACTOME_INTERFERON_GAMMA_SIGNALING

Cn1c(=O)n(-c2ccc(C(C)(C)C#N)cc2)c2c3cc(-c4cnc5ccccc5c4)ccc3ncc21 [BEZ235, 2-methyl-2-[4-(3-methyl-2-oxo-8-quinolin-3-yl-2,3-dihydro-imidazo[4,5-c]quinolin-1-yl)-phenyl]-propionitrile]
inter-patient variability, AUClast,ss % CV [1]: 39%
incidence and severity of respiratory tract infections during the 6 weeks subjects were treated with study drug [2]: reduction
tolerability [3]: well tolerated
Up-regulated genes ([4]; REACTOME_CYTOKINE_SIGNALING_IN_IMMUNE_SYSTEM, listed as Bez): IFITM3; FCGR1A; FCGR1B; HLA-DQA2; and CDK1
Mean FC Genes In Pathway ([4]; REACTOME_CYTOKINE_SIGNALING_IN_IMMUNE_SYSTEM): 0.02
Up-regulated genes ([4]; REACTOME_IMMUNE_SYSTEM, listed as Bez): IFITM3; LILRB4; TRIM9; FCGR1A;; also recorded: FCGR1B; CD274; HLA-DQA2; RAP1GAP;; also recorded: TLR5; C1QA; C1QB; C3; C4BPA;; also recorded: PDCD1LG2; KLHL13; CD80; CDK1
Mean FC Genes In Pathway ([4]; REACTOME_IMMUNE_SYSTEM): 0.01
Up-regulated genes [4, 7]: IFITM3
Mean FC Genes In Pathway [4, 7]: 0.03
Up-regulated genes [4, 8]: FCGR1A; FCGR1B; HLA-DQA2
Mean FC Genes In Pathway [4, 8]: 0.04
Up-regulated genes ([4]; REACTOME_INTERFERON_SIGNALING): IFITM3; FCGR1A; FCGR1B, HLA-DQA2
Mean FC Genes In Pathway ([4]; REACTOME_INTERFERON_SIGNALING): 0.03
maximum tolerated dose [5]: 1200 mg daily
concentration at which mTORC1 and mTORC2 inhibition predominates (mTORC1 and mTORC2): less than 200 nmol/L
solubility [6]: low
concentration at which mTORC1 inhibition predominates (mTORC1): less than or equal to 10 nmol/L
concentration of dual PI3K/mTOR inhibition (PI3K/mTOR): approximately 500 nmol/L

CO[C@H]1C[C@@H]2CC[C@@H](C)[C@@](O)(O2)C(=O)C(=O)N2CCCC[C@H]2C(=O)O[C@H]([C@H](C)C[C@@H]2CC[C@@H](OCCO)[C@H](OC)C2)CC(=O)[C@H](C)/C=C(\C)[C@@H](O)[C@@H](OC)C(=O)[C@H](C)C[C@H](C)/C=C/C=C/C=C/1C [RAD001, (1R,9S,12S,15R,16E,18R,19R,21R,23 S,24E,26E,28E,30S,32S,35R)-1,18-dihydroxy-12-{(1R)-2-[(1 S,3R,4R)-4-(2-hydroxyethoxy)-3-methoxycyclohexyl]-1-methylethyl}-19,30-dimethoxy-15,17,21,23,29,35-hexamethyl-11,36-dioxa-4-aza-tricyclo[30.3.1.04,9]hexatriaconta-16,24,26,28-tetraene-2,3,10,14,20-pentaone]
Percent of subjects with urinary tract infections during one year after study drug administration (urinary tract infections; RAD001 0.1 mg daily, N = 51): 10%
Percent of subjects with urinary tract infections during one year after study drug administration (urinary tract infections; RAD001 0.5 mg daily, N = 46): 11%
Infection rate/person for one year after study drug administration (infections; RAD001 0.1 mg daily for 6 weeks): 2.0
Infection rate/person for one year after study drug administration (infections; RAD001 0.5 mg daily for 6 weeks): 2.1
Number of tooth or gum infections per person for one year after study drug administration (tooth or gum infections; RAD001 0.1 mg daily): .02
Number of tooth or gum infections per person for one year after study drug administration (tooth or gum infections; RAD001 0.5 mg daily): .02
